Test [1] has as its system SK-CO-1 cells. Briefly: SK-CO-1 CTG proliferation assay (120 h) (CRC, G12V). The format is cell-based. The following applies: Homo sapiens; SK-CO-1 cells (CRC, G12V), CTG 120 h. The method in brief:
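Compound exposure lasted 120 h in KRAS G12V SK-CO-1 cells seeded overnight at 500 cells/well in 10% FCS EMEM. CellTiter-Glo RLU normalised to DMSO wells gave percent viability, and a four-parameter model fit yielded IC50.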

For test [2], the target named is KRAS (G12C)::SOS1 (Homo sapiens (Human), UniProt P01116, C118S/C51S/C80L/G12C). The test can be described thus: KRAS::SOS1 AlphaScreen binding assay, KRAS G12C. A digest of the protocol: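 KRAS 1-169 (biotinylated avi-tag) with GST-SOS1 564-1049 and 10 µM GDP in PBS/0.1% BSA/0.05% Tween 20: WT and G13D 10 nM each with 10 nM SOS1; G12D 10 nM and G12C 7.5 nM with 5 nM SOS1. After 30 min, glutathione acceptor/streptavidin donor beads were added for 60 min at RT in the dark, then AlphaScreen read; 4-parameter IC50.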

In general, IC50 refers to the concentration that gives 50% inhibition. High values mean weaker potency in that assay, low ones greater potency in that assay.

Chain of KRAS (G12C)::SOS1 (P01116 other isoform, or with tags, fused parts or gaps G12C/C51S/C80L/C118S): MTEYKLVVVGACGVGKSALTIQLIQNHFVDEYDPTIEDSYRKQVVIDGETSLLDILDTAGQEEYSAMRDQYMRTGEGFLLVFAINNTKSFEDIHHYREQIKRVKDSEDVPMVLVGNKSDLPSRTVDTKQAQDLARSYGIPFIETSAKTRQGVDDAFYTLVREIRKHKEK

Regarding `C[C@H](Oc1cc(N2CC[C@H](N(C)C)C2)nc(-c2noc3c2CCC[C@@]32CCCc3sc(N)c(C#N)c32)n1)[C@@H]1C[C@@H](F)CN1C` [II-15], the IC50 came to 1250 nM in test [1] and 7 nM in test [2].
For `CO[C@H]1CCN(C)[C@@H]1[C@H](C)Oc1cc(N2CCNC3(CC3)C2)nc(-c2onc3c2CCC[C@@]32CCCc3sc(N)c(C#N)c32)n1` [I-49], in that order: 515 nM and 3 nM.
For `C[C@H](Oc1cc(N2CCNCC2)nc(-c2noc3c2CCC[C@@]32CCCc3sc(N)c(C#N)c32)n1)[C@@H]1CCCN1C` [II-45], in that order: 1790 nM and 3 nM.
For `C[C@H](Oc1cc(-c2ccn(C[C@@H]3CCCO3)n2)nc(-c2noc3c2CCC[C@@]32CCCc3sc(N)c(C#N)c32)n1)[C@@H]1CCCN1C` [II-43], in that order: 46 nM and 1 nM.
Turning to `Cc1ccc(-c2cc(O[C@@H](C)[C@@H]3CCCN3C)nc(-c3onc4c3CCC[C@@]43CCCc4sc(N)c(C#N)c43)n2)cn1` [I-28], the figures for the IC50 in test [1] and in test [2] were 131 nM and 3 nM, respectively.
The like results for `Cc1nc(-c2cc(O[C@@H](C)[C@@H]3CCCN3C)nc(-c3onc4c3CCC[C@@]43CCCc4sc(N)c(C#N)c43)n2)cs1` [I-24] were, in that order, 67 nM and 2 nM.
The like results for `C[C@H](Oc1cc(-c2ccn([C@H]3CCCOC3)n2)nc(-c2noc3c2CCC[C@@]32CCCc3sc(N)c(C#N)c32)n1)[C@@H]1CCCN1C` [II-42] were, in that order, 38 nM and 2 nM.
For `C[C@H](Oc1cc(N2CCC(N(C)C)CC2)nc(-c2noc3c2CCC[C@@]32CCCc3sc(N)c(C#N)c32)n1)[C@@H]1CCCN1C` [II-48], in that order: 1070 nM and 7 nM.
In the case of `C[C@H](Oc1cc(N2CCN(C)C3(COC3)C2)nc(-c2onc3c2CCC[C@@]32CCCc3sc(N)c(C#N)c32)n1)[C@@H]1C[C@@H](F)CN1C` [I-37], the IC50 in test [1] was determined as 1080 nM; in test [2] it was 2 nM.
For `C[C@H](Oc1cc(N2C[C@H]3CN(C)C[C@H]3C2)nc(-c2noc3c2CCC[C@@]32CCCc3sc(N)c(C#N)c32)n1)[C@@H]1CCCN1C` [II-33], in that order: 1050 nM and 8 nM.
Consider `C[C@H](Oc1cc(-n2ccc(C(=O)O)n2)nc(-c2noc3c2CCC[C@@]32CCCc3sc(N)c(C#N)c32)n1)[C@@H]1CCCN1C` [II-24], for which the values for the IC50 in test [1] and in test [2] were 9250 nM and 2 nM, respectively.
For `C[C@H](Oc1cc([C@@H]2CCN(C)C2)nc(-c2noc3c2CCC[C@@]32CCCc3sc(N)c(C#N)c32)n1)[C@@H]1CCCN1C` [II-37], in that order: 562 nM and 3 nM.
The like results for `C[C@H](Oc1cc(-n2ccc(C(=O)NC3(C)COC3)n2)nc(-c2noc3c2CCC[C@@]32CCCc3sc(N)c(C#N)c32)n1)[C@@H]1CCCN1C` [II-26] were, in that order, 3 nM and 1 nM.
Turning to `COCCNC(=O)c1ccn(-c2cc(O[C@@H](C)[C@@H]3CCCN3C)nc(-c3onc4c3CCC[C@@]43CCCc4sc(N)c(C#N)c43)n2)n1` [I-58], the IC50 was 14 nM in test [1] and 1 nM in test [2].
For `C[C@H](NC(=O)c1ccn(-c2cc(O[C@@H](C)[C@@H]3CCCN3C)nc(-c3onc4c3CCC[C@@]43CCCc4sc(N)c(C#N)c43)n2)n1)c1ccccn1` [I-59], in that order: 5 nM and 1 nM.
As for `C[C@H](Oc1cc(Cl)nc(-c2onc3c2CCC[C@@]32CCCc3sc(N)c(C#N)c32)n1)[C@@H]1CCCN1C` [I-1], the half-inhibitory concentration (IC50) in test [1] was 418 nM; in test [2], 2 nM.
On to `CO[C@H]1CCN(C)[C@@H]1[C@H](C)Oc1cc(-n2ccc(C(=O)N[C@H]3CCOC3)n2)nc(-c2onc3c2CCC[C@@]32CCCc3sc(N)c(C#N)c32)n1` [I-54], for which the IC50 in test [1] was 7 nM; in test [2], 1 nM.
For `C[C@H](Oc1cc(N2CC[C@H](N3CCCC3)C2)nc(-c2noc3c2CCC[C@@]32CCCc3sc(N)c(C#N)c32)n1)[C@@H]1CCCN1C` [II-14], in that order: 771 nM and 4 nM.
For `C[C@H](Oc1cc(N2C[C@H](C)NC3(CC3)C2)nc(-c2noc3c2CCC[C@@]32CCCc3sc(N)c(C#N)c32)n1)[C@@H]1C[C@@H](F)CN1C` [II-18], in that order: 444 nM and 3 nM.

The record behind these values is US20240174690A1, “ANNULATED 2-AMINO-3-CYANO THIOPHENES AND DERIVATIVES FOR THE TREATMENT OF CANCER” (BOEHRINGER INGELHEIM INTERNATIONAL GMBH, priority 2021, published 2024).
